Results: ChEMBL document CHEMBL3826932, “An orally available tyrosine kinase ALK and RET dual inhibitor bearing the tetracyclic benzo[b]carbazolone core” (Eur J Med Chem, 2016)
Values belong to the molecule of their own block, whether it stands above or below them. Active and inactive are the calls of the source. The rule behind the calls is not given here.

How the values were obtained:
[1] = Antitumor activity against mouse NIH/3T3 cells expressing wild type EML4-ALK xenografted in nude mouse assessed as tumor growth inhibition at 40 mg/kg, po qd administered for 10 days; type: functional; settings: NIH3T3, po, 240 h, read-out: TGI
[2] = Antitumor activity against mouse NIH/3T3 cells expressing wild type EML4-ALK xenografted in nude mouse assessed as tumor growth inhibition at 20 mg/kg, po qd administered for 10 days; type: functional; settings: NIH3T3, po, 240 h, read-out: TGI
[3] = Antitumor activity against mouse NIH/3T3 cells expressing EML4-ALK L1196M mutant xenografted in nude mouse assessed as tumor growth inhibition at 40 mg/kg, po qd administered for 10 days; type: functional; settings: NIH3T3, po, 240 h, read-out: TGI
[4] = Antitumor activity against mouse NIH/3T3 cells expressing EML4-ALK L1196M mutant xenografted in nude mouse assessed as tumor growth inhibition at 20 mg/kg, po qd administered for 10 days; type: functional; settings: NIH3T3, po, 240 h, read-out: TGI
[5] = biological target: Hepatocyte growth factor receptor (Homo sapiens, UniProt P08581); test: Inhibition of N-terminal His6-tagged recombinant human c-Met (974 residues) expressed in insect Sf21 cells using poly(Glu,Tyr)4:1 as substrate incubated for 60 mins by ELISA
[6] = biological target: Leukocyte tyrosine kinase receptor (Homo sapiens, UniProt P29376); test: Inhibition of recombinant LTK (unknown origin) using poly(Glu,Tyr)4:1 as substrate incubated for 60 mins by ELISA
[7] = biological target: Proto-oncogene tyrosine-protein kinase ROS (Homo sapiens, UniProt P08922); test: Inhibition of recombinant ROS1 (unknown origin) using poly(Glu,Tyr)4:1 as substrate incubated for 60 mins by ELISA
[8] = biological target: Insulin-like growth factor 1 receptor (Homo sapiens, UniProt P08069); test: Inhibition of N-terminal His6-tagged recombinant human IGF-1R (959 residues) expressed in insect Sf21 cells using poly(Glu,Tyr)4:1 as substrate incubated for 60 mins by ELISA
[9] = biological target: Tyrosine-protein kinase receptor UFO (Homo sapiens, UniProt P30530); test: Inhibition of recombinant human AXL using poly(Glu,Tyr)4:1 as substrate incubated for 60 mins by ELISA
[10] = biological target: Tyrosine-protein kinase receptor TYRO3 (Homo sapiens, UniProt Q06418); test: Inhibition of N-terminal His6-tagged recombinant human TYRO3 (451 residues) expressed in insect Sf21 cells using poly(Glu,Tyr)4:1 as substrate incubated for 60 mins by ELISA
[11] = biological target: Macrophage-stimulating protein receptor (Homo sapiens, UniProt Q04912); test: Inhibition of N-terminal His6-tagged recombinant human Ron (983 residues) expressed in insect Sf21 cells using poly(Glu,Tyr)4:1 as substrate incubated for 60 mins by ELISA
[12] = biological target: Vascular endothelial growth factor receptor 2 (Homo sapiens, UniProt P35968); test: Inhibition of N-terminal His6-tagged recombinant human KDR (790 residues) expressed in insect Sf21 cells using poly(Glu,Tyr)4:1 as substrate incubated for 60 mins by ELISA
[13] = biological target: Platelet-derived growth factor receptor alpha (Homo sapiens, UniProt P16234); test: Inhibition of N-terminal His6-tagged recombinant human PDGFRalpha (550 residues) expressed in insect Sf21 cells using poly(Glu,Tyr)4:1 as substrate incubated for 60 mins by ELISA
[14] = biological target: Epidermal growth factor receptor (Homo sapiens, UniProt P00533, L858R/T790M); test: Inhibition of N-terminal GST-tagged recombinant human EGFR T790M/L858R double mutant (696 residues) expressed in insect Sf21 cells using poly(Glu,Tyr)4:1 as substrate incubated for 60 mins by ELISA
[15] = biological target: Platelet-derived growth factor receptor beta (Homo sapiens, UniProt P09619); test: Inhibition of N-terminal His6-tagged recombinant human PDGFRbeta (557 residues) expressed in insect Sf21 cells using poly(Glu,Tyr)4:1 as substrate incubated for 60 mins by ELISA
[16] = biological target: Receptor tyrosine-protein kinase erbB-4 (Homo sapiens, UniProt Q15303); test: Inhibition of N-terminal His6-tagged recombinant human ErbB4 (709 to 991 residues) expressed in insect Sf21 cells using poly(Glu,Tyr)4:1 as substrate incubated for 60 mins by ELISA
[17] = biological target: Vascular endothelial growth factor receptor 1 (Homo sapiens, UniProt P17948); test: Inhibition of N-terminal GST-tagged recombinant human FLT1 (783 residues) expressed in insect Sf21 cells using poly(Glu,Tyr)4:1 as substrate incubated for 60 mins by ELISA
[18] = biological target: Receptor-type tyrosine-protein kinase FLT3 (Homo sapiens, UniProt P36888); test: Inhibition of N-terminal GST-tagged recombinant human FLT3 (564 residues) expressed in insect Sf21 cells using poly(Glu,Tyr)4:1 as substrate incubated for 60 mins by ELISA
[19] = biological target: Proto-oncogene tyrosine-protein kinase Src (Homo sapiens, UniProt P12931); test: Inhibition of recombinant human c-Src expressed in insect Sf9 cells using poly(Glu,Tyr)4:1 as substrate incubated for 60 mins by ELISA
[20] = biological target: Tyrosine-protein kinase ABL1 (Mus musculus, UniProt P00520); test: Inhibition of N-terminal His6-tagged recombinant mouse ABL (27 to 1123 residues) expressed in insect Sf21 cells using poly(Glu,Tyr)4:1 as substrate incubated for 60 mins by ELISA
[21] = biological target: Fibroblast growth factor receptor 1 (Homo sapiens, UniProt P11362); test: Inhibition of N-terminal GST-tagged recombinant human FGFR1 (456 to 765 residues) expressed in insect Sf21 cells using poly(Glu,Tyr)4:1 as substrate incubated for 60 mins by ELISA
[22] = biological target: Receptor tyrosine-protein kinase erbB-2 (Homo sapiens, UniProt P04626); test: Inhibition of human ErbB2 using poly(Glu,Tyr)4:1 as substrate incubated for 60 mins by ELISA
[23] = biological target: Mast/stem cell growth factor receptor Kit (Homo sapiens, UniProt P10721); test: Inhibition of N-terminal GST-tagged recombinant human c-Kit (544 residues) expressed in insect Sf21 cells using poly(Glu,Tyr)4:1 as substrate incubated for 60 mins by ELISA
[24] = biological target: T1, Proto-oncogene tyrosine-protein kinase receptor Ret (Homo sapiens, UniProt P07949); test: Inhibition of RET (unknown origin) phosphorylation at […] residue in mouse BaF3/CCDC6-RET cells after 1 hr by Western blot analysis; type: cell-based
[25] = biological target: T1, Proto-oncogene tyrosine-protein kinase receptor Ret; test: Inhibition of RET (unknown origin) in mouse BaF3/CCDC6-RET cells assessed as suppression of ERK1/2 phosphorylation at T202/Y204 residue after 1 hr by Western blot analysis; type: cell-based
[26] = biological target: T1, Proto-oncogene tyrosine-protein kinase receptor Ret; test: Inhibition of RET (unknown origin) in mouse BaF3/CCDC6-RET cells assessed as suppression of AKT phosphorylation at S473 residue after 1 hr by Western blot analysis; type: cell-based
[27] = biological target: T1, Proto-oncogene tyrosine-protein kinase receptor Ret; test: Inhibition of RET (unknown origin) in mouse BaF3/CCDC6-RET cells assessed as suppression of STAT3 phosphorylation at Y705 residue after 1 hr by Western blot analysis; type: cell-based
NIH3T3 [28] = test: Antitumor activity against mouse NIH/3T3 cells expressing wild type EML4-ALK xenografted in nude mouse assessed as tumor stasis at 20 to 40 mg/kg, po qd administered for 10 days; type: functional, organism-based
NIH3T3 [29] = test: Antitumor activity against mouse NIH/3T3 cells expressing wild type EML4-ALK xenografted in nude mouse assessed as partial tumor regression at 20 to 40 mg/kg, po qd administered for 10 days; type: functional, organism-based
NIH3T3 [30] = test: Antitumor activity against mouse NIH/3T3 cells expressing EML4-ALK L1196M mutant xenografted in nude mouse assessed as tumor stasis at 40 mg/kg, po qd administered for 10 days; type: functional, organism-based
NIH3T3 [31] = test: Antitumor activity against mouse NIH/3T3 cells expressing EML4-ALK L1196M mutant xenografted in nude mouse assessed as partial tumor regression at 40 mg/kg, po qd administered for 10 days; type: functional, organism-based
Mus musculus = test: Toxicity in nude mouse assessed as weight loss at 20 to 40 mg/kg, po qd administered for 10 days; type: organism-based; settings: in vivo, 240 h
cells [32] = settings: Homo sapiens, KARPAS-299, 72 h
Description: Antiproliferative activity against human KARPAS299 cells after 72 hrs by SRB/CCK-8 assay

cells [33] = settings: Homo sapiens, SU-DHL-1, 72 h
Description: Antiproliferative activity against human SU-DHL1 cells after 72 hrs by SRB/CCK-8 assay

cells [34] = settings: Homo sapiens, SUP-M2, 72 h
Description: Antiproliferative activity against human SUP-M2 cells after 72 hrs by SRB/CCK-8 assay

cells [35] = settings: Homo sapiens, NCI-H3122, 72 h
Description: Antiproliferative activity against human NCI-H3122 cells after 72 hrs by SRB/CCK-8 assay

cells [36] = settings: Mus musculus, NIH3T3, 72 h
Description: Antiproliferative activity against mouse NIH/3T3 cells expressing wild type EML4-ALK after 72 hrs by SRB/CCK-8 assay

cells [37] = settings: Mus musculus, NIH3T3, 72 h; remark: listed apart in the source
Description: Antiproliferative activity against mouse NIH/3T3 cells expressing EML4-ALK L1196 mutant after 72 hrs by SRB/CCK-8 assay

[38] = biological target: T1, Proto-oncogene tyrosine-protein kinase receptor Ret; test: biochemical
NIH3T3 [39] = test: Antitumor activity against mouse NIH/3T3 cells expressing EML4-ALK L1196M mutant xenografted in nude mouse assessed as tumor stasis at 50 mg/kg, po qd administered for 10 days; type: functional, organism-based
NIH3T3 [40] = test: Antitumor activity against mouse NIH/3T3 cells expressing EML4-ALK L1196M mutant xenografted in nude mouse assessed as partial tumor regression at 50 mg/kg, po qd administered for 10 days; type: functional, organism-based
animal or person [41] = settings: Mus musculus, NIH3T3, po, 240 h, read-out: TGI
Description: Antitumor activity against mouse NIH/3T3 cells expressing wild type EML4-ALK xenografted in nude mouse assessed as tumor growth inhibition at 50 mg/kg, po qd administered for 10 days

animal or person [42] = settings: Mus musculus, NIH3T3, po, 240 h, read-out: TGI; remark: listed apart in the source
Description: Antitumor activity against mouse NIH/3T3 cells expressing EML4-ALK L1196M mutant xenografted in nude mouse assessed as tumor growth inhibition at 50 mg/kg, po qd administered for 10 days

T1 sequence (P07949 whole entry): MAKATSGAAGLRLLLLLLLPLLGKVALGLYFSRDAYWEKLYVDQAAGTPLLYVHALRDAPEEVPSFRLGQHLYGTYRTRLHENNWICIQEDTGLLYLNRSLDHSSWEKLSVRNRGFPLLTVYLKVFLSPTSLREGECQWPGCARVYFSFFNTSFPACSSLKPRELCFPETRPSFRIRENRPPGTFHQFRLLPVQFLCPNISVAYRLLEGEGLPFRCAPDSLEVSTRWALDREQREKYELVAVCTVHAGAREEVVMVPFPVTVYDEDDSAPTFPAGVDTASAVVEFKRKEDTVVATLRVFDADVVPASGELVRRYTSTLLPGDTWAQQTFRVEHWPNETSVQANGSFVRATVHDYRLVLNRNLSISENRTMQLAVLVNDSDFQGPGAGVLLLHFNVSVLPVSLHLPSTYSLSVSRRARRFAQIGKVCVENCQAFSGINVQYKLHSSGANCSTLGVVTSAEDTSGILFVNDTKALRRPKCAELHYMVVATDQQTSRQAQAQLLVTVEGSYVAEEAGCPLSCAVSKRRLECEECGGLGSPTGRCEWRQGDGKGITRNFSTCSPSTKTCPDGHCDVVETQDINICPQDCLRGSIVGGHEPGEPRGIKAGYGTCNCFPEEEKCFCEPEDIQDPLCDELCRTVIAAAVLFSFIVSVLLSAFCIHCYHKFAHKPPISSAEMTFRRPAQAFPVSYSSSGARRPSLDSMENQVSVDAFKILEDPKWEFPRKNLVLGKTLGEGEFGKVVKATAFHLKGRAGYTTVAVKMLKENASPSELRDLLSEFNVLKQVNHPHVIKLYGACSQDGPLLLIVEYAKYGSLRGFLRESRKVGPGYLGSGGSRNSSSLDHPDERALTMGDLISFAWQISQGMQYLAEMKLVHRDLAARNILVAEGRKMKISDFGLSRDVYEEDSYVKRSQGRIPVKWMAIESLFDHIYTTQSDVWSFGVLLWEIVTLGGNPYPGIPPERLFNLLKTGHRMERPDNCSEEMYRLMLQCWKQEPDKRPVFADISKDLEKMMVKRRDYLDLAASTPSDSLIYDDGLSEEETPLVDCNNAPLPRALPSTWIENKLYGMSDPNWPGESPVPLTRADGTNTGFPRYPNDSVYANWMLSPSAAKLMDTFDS
Chain of Receptor tyrosine-protein kinase erbB-4 (Q15303 whole entry, the tested form may be a part): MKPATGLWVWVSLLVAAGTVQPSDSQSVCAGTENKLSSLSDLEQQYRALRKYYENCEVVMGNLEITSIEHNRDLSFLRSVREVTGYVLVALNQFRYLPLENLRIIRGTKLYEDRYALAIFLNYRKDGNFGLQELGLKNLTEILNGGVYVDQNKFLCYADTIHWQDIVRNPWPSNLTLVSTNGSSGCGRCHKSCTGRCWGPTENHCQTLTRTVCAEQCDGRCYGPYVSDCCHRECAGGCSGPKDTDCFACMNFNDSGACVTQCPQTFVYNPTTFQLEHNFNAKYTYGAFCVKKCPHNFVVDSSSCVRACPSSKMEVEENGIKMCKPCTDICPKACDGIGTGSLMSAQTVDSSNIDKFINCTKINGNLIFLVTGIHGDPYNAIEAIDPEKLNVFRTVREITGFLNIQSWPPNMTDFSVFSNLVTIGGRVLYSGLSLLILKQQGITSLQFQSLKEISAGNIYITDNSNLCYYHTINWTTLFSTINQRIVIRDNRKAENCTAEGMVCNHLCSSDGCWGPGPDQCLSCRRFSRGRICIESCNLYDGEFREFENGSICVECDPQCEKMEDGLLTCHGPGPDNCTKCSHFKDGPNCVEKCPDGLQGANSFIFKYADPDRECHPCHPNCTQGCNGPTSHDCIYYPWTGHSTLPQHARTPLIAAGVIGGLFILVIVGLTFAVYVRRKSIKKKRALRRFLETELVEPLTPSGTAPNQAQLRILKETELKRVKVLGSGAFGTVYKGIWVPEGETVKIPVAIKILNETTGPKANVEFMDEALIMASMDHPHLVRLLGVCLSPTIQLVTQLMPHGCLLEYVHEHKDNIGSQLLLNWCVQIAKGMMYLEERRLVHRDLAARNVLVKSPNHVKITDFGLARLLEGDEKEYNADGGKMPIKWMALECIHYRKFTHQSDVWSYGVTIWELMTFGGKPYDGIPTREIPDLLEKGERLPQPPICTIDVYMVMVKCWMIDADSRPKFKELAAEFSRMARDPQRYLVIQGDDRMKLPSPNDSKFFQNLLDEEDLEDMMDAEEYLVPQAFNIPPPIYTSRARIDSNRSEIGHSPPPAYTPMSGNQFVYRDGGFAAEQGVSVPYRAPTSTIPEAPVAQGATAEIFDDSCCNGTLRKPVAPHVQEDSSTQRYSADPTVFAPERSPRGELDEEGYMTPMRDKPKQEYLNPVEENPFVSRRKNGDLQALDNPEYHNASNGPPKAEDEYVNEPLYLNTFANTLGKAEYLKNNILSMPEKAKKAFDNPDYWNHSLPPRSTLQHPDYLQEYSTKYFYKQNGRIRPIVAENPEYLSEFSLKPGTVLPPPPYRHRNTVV
Chain of Proto-oncogene tyrosine-protein kinase ROS (P08922 whole entry): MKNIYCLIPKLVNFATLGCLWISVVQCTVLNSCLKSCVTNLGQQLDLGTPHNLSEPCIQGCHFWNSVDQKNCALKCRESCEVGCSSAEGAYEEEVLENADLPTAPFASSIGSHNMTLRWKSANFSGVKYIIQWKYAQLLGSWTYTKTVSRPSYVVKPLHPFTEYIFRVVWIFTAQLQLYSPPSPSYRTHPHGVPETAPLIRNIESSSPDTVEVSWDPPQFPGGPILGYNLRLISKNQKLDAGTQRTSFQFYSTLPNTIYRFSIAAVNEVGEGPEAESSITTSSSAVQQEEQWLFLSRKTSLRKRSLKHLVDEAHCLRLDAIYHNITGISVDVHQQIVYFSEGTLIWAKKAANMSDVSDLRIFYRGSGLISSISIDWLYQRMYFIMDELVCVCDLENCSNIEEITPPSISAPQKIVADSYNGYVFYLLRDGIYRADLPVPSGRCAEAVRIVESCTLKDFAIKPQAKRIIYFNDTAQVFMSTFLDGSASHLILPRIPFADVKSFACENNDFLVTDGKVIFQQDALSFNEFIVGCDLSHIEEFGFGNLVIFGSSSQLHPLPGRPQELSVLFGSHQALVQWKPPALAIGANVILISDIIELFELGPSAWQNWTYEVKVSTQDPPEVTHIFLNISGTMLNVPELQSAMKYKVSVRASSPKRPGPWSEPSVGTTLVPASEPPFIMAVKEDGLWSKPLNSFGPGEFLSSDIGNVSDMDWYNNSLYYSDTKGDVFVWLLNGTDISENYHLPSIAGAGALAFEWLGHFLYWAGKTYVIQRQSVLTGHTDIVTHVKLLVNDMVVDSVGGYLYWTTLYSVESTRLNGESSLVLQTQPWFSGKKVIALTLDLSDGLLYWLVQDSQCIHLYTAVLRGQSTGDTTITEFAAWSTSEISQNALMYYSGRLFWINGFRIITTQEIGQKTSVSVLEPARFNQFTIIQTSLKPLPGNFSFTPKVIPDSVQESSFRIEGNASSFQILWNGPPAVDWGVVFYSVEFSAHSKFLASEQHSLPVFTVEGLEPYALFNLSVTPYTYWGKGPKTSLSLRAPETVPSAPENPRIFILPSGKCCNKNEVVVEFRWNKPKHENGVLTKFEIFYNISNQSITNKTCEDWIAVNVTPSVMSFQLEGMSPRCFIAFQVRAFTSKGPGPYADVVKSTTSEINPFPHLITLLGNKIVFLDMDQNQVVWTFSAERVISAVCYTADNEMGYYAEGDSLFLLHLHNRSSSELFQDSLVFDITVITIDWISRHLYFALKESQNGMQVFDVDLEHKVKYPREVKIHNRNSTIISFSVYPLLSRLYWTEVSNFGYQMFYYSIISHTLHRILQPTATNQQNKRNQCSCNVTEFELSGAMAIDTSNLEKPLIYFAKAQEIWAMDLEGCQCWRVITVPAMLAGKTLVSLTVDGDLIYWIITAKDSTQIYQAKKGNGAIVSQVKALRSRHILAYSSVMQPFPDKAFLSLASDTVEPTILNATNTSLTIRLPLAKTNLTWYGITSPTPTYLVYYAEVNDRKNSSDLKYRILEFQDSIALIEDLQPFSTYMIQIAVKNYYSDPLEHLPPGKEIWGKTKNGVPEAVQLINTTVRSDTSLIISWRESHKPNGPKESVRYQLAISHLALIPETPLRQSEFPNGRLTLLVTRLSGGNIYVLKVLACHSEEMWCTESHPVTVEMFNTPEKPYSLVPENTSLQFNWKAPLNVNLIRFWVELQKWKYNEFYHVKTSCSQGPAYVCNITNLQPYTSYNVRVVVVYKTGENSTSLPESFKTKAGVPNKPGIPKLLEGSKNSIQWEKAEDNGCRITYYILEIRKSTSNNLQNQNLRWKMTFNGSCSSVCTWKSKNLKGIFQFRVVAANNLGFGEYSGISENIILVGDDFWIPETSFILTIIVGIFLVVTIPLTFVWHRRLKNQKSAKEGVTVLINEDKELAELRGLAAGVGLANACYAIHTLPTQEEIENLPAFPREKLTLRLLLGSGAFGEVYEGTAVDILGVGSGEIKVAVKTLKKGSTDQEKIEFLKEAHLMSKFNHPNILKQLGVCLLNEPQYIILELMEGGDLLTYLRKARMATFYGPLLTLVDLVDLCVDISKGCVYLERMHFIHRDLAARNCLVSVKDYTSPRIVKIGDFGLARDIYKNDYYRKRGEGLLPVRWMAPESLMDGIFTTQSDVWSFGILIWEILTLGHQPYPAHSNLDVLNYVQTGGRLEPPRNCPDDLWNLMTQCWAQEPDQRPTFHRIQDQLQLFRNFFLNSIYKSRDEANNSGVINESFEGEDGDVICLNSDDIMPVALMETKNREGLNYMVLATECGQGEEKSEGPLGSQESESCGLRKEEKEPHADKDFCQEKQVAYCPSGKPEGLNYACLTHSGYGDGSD

IC50 [5]: > 1000 nM
IC50 [6]: 43.1 nM
IC50 [7]: > 1000 nM
IC50 [8]: 27.8 nM
IC50 [9]: 170 nM
IC50 [10]: 71.9 nM
IC50 [11]: 93.4 nM
IC50 [12]: 104 nM
IC50 [13]: 402 nM
IC50 [14]: 350 nM
IC50 [15]: 64.2 nM
IC50 [16]: 213 nM
IC50 [17]: 159 nM
IC50 [18]: 85.7 nM
IC50 [19]: 75.4 nM
IC50 [20]: > 1000 nM
IC50 [21]: > 1000 nM
IC50 [22]: > 1000 nM
IC50 [23]: > 1000 nM
inhibition [24]: Dose-dependent effect
inhibition [25]: Dose-dependent effect
inhibition [26]: Dose-dependent effect
inhibition [27]: Dose-dependent effect
IC50 (cells [32]): 44.8 nM
IC50 (cells [33]): 48.3 nM
IC50 (cells [34]): 22.9 nM
IC50 (cells [35]): 43.3 nM
IC50 (cells [36]): 46.7 nM
IC50 (cells [37]): 196 nM
IC50 [38]: 1.6 nM
Structure (SMILES): CC1(C)c2cc(C3CCN(CC4CCOCC4)CC3)ccc2C(=O)c2c1[nH]c1cc(C#N)ccc21
inhibition in vivo at 40 mg/kg [1]: 102%
inhibition in vivo at 20 mg/kg [2]: 102%
inhibition in vivo at 40 mg/kg [3]: 87.3%
inhibition in vivo at 20 mg/kg [4]: 56.9%
Activity (NIH3T3 [28]): Active
Activity (NIH3T3 [29]): Active
Activity (NIH3T3 [30]): Active
Activity (NIH3T3 [31]): Active
Activity (Mus musculus): Non-toxic

IC50 (cells [32]): 15 nM
IC50 (cells [33]): 20.5 nM
IC50 (cells [34]): 17.9 nM
IC50 (cells [35]): 17.4 nM
IC50 (cells [36]): 32.3 nM
IC50 (cells [37]): 132 nM
Structure (SMILES): CCc1cc2c(cc1N1CCC(N3CCOCC3)CC1)C(C)(C)c1[nH]c3cc(C#N)ccc3c1C2=O [ALECTINIB]
Activity (NIH3T3 [39]): Active
Activity (NIH3T3 [40]): Active
inhibition in vivo at 50 mg/kg (animal or person [41]): 103%
inhibition in vivo at 50 mg/kg (animal or person [42]): 83.5%
